Assay type in all cases: cell-based, mouse
Assay [1] relates to Src family tyrosine kinases (SFTKs). The experiment in a line: Western blotting with phospho-specific antibodies of MYC5 cells expressing WT or MUT CD19 treated with SU6656. As for the experimental part: (§1) FIG. 11A provides growth rates of MYC5 tumors expressing either wild type or mutant CD19. FIG. 11B provides immunoblotts of protein lysates obtained from individual tumors in FIG. 11A on day 23. […] Phosphorylation was assessed using Western blotting with phospho-specific antibodies. […] GFP-only-expressing MYC5 cells were used as a control. Cell proliferation was measured using the WST assay at indicated time points.
(In general: In western blotting, separated proteins are transferred to a membrane and probed.)

A further assay concerns MYC5/CD19 cells. The assay is described as follows: WST cell proliferation assay of MYC5/CD19 cells. Particulars: CD19mut/PI3K-disabled cells; GFP-only MYC5 cells as control. As for the experimental part: as §1
Proliferation of Myc5-M5 CD19 transduced cells in vitro were determined using cell proliferation reagent WST-1 (Roche Molecular Biochemicals). Cells were seeded at 1×10^3/well in 100 μl of culture medium were incubated for a total of 72 hours. Proliferation status was determined every 24 hours by incubating with 10 μl of the cell proliferation reagent WST-1 for 4 hours. The absorbance of the treated samples in triplicates were measured against a blank control was measured at 440 nM using a Synergy™ 2 microplate reader (BioTek Instruments).

The subject of the next assay is protein synthesis. The experiment in a line: Cycloheximide experiment in Pax5- and CD19-reconstituted Myc5 cells. Particulars: 1 μg/ml, over 30 minutes. The source says: All figures except FIGS. 3E and 3H represent immunoblotting analyses of proteins indicated on the left. Actin was used as a loading control. In bracketed panels of FIG. 3A, whole cell lysates from Myc5 cells expressing HA-tagged wild-type or mutant (“mut”) ITAM were subjected to immune-precipitation with an α-HA antibody followed by immunoblotting with antibody against total Lyn, Tyr396-phospho-Lyn, or another α-HA antibody. In the bottom panels, lysates from the same cells were immunoblotted with antibodies against c-Myc, and β-actin. […] Mean fluorescent intensities (MFI) are shown in each plot. […] CHX was added at the concentration of 1 μg/ml for 7.5-30 minutes. In the bottom panels Myc-specific bands were quantitated by densitometry, normalized to actin, and plotted against time after treatment. Note that different exposures are shown for parental and Pax5/CD19-transduced cells to allow accurate band quantitation. […]
Myc5 stably transduced with either Pax5 or CD19 retroviral construct were seeded at 1×10^6/ml in 50 ml conical tubes received cycloheximide (Sigma) treatment at 1 μg/ml, while stimulation with 95% ethanol (sigma) served as control. […] Protein samples were resolved on 10% SDS-PAGE for Western blot analysis. c-Myc protein levels were quantified by densitometry using ImageJ 1.43 (National Institutes of Health) with quantitated values normalized to β-actin.

As for `CN(C)S(=O)(=O)c1ccc2c(c1)/C(=C/c1cc3c([nH]1)CCCC3)C(=O)N2` [SU6656], in assay [1], the phospho-JNK levels result is listed as “reduced”. In addition, the “cell proliferation (WST assay)” value with MYC5/CD19 cells is reported as “selectively suppressed proliferation”.

Consider `C[C@@H]1C[C@@H]([C@H](O)CC2CC(=O)NC(=O)C2)C(=O)[C@@H](C)C1` [CHX, cycloheximide], for which, in the assay on protein synthesis, the Myc levels entry is reported as “clearly down-regulated” and the “retrovirally transduced Pax5 or CD19 protein expression” value is “no observable effects”.

(Values after US10983109B2, “Compositions and methods for treating B-lymphoid malignancies” (The Children's Hospital of Philadelphia, priority 2013, dated 2021).)
